Article PMC7886681, “Characterization and Validation of Arg286 Residue of IL-1RAcP as a Potential Drug Target for Osteoarthritis” (Frontiers in Chemistry, 2021)
Blank lines part the entries; values can stand above or below the molecule they belong to. Bridges are numbered along the chain shown (N, C = ends). Where no end group is shown, it is not given here.

Assays:
[1] = biological target: IL-1β:IL-1RI:IL-1RAcP complex (Homo sapiens, UniProt P01584+P14778); assay: Receptor complex immunoprecipitation pull-down with IL-1β western blot; type: biochemical; conditions: for IL-1β pull down inhibition: concentration not given
Protocol: IL-1β (20 ng μl^−1), IL-1RI (100 ng μl^−1), and 6xHis-tagged IL-1RAcP (40 ng μl^−1) were incubated with parent Peptide 1.0, a peptide variant, or the antibody inhibitor at various concentrations in 50 μl of PBS for 1 h at room temperature under rotation. In parallel, IL-1β, IL-1RI, and 6xHis-tagged IL-1RAcP were allowed to interact without parent Peptide 1.0 as a positive control. IL-1β by itself acted as a negative control. BcMag Protein G Magnetic Beads (50 μl, Bioclone) were washed 3 times with washing buffer (57.7 mM Na2HPO4, 42.3 mM NaH2PO4, pH 7.0), incubated with anti-6xHis mouse monoclonal antibody (1 μg, Abcam) for 30 min under rotation, isolated with neodymium magnets, and washed three times with washing buffer (57.7 mM Na2HPO4, 42.3 mM NaH2PO4, pH 7.0). Protein complex mixtures were incubated with the anti-His antibody decorated magnetic beads for 1 h at room temperature under rotation. Magnetic beads were separated (neodymium magnets) and washed 3X with buffer (57.7 mM Na2HPO4, 42.3 mM NaH2PO4, pH 7.0). Immunoprecipitated proteins were eluted with 20 μl of 4X sample buffer (10 min, 70°C) and analyzed by western blotting (anti-IL1β antibody).
SDS-PAGE was used to separate the immune-precipitated proteins in a 4–20% Tris-Glycine gel for 90 min at 125 V. The proteins were transferred for 2 h at 25 V onto an Immobilion PVDF membrane. After blocking the membrane using PBS containing 0.2% (w/v) I-Block and 0.1% Tween 20 for 1 h at room temperature (or overnight at 4°C), the membrane was subjected to a 2-h incubation with an anti-IL1β antibody (1:1,000, Cell Signaling Technology) while undergoing continuous agitation. The membrane was washed with PBS containing 0.1% Tween 20, then subjected to a 1-h incubation with the secondary anti-mouse horseradish-peroxidase-conjugated anti-IgG antibody (1:10,000, Invitrogen). The western blot was developed using a chemiluminescence system (SuperSignal^TM West Dura Extended Duration Substrate) and imaged using a Kodak 4000MM system.
Statistical tests (One-way ANOVA with Dunnett's Multiple Comparison adjustment) and non-linear regression of the dose response pull down peptide inhibition data were performed using GraphPad Prism.

[2] = tested on: IL-1β signaling in HEK-Blue IL-1β cells; assay: HEK-Blue IL-1β reporter cell assay (SEAP); type: cell-based, human; conditions: 2 μM peptide; IL-1β 2.5 ng/ml; triplicate
Protocol: HEK 293 reporter cells for human IL-1β (HEK-Blue IL-1β cells, Invivogen) were used to test the ability of peptide variants to inhibit IL-1β signaling pathway. HEK-Blue IL-1β cells were used according to manufacturer instructions. HEK-Blue IL-1β cells were cultured in Dulbecco's modified Eagle's medium (DMEM, Gibco) additioned with 10% heat inactivated fetal bovine serum (ATCC), 4.5 g/l glucose (Sigma), and 2 mM L-glutamine (ATCC) at 37°C, 5% CO2, in a humidified environment. HEK-Blue IL-1β cells (5,000 cells/well) were plated into 96-well tissue culture plates. The following day, cells were pre-treated for 1 h with peptide variants (Peptides 1.0, 1.1, 1.2, 2.0, 3.0, 4.0, and 4.3) or soluble IL-1RAcP (2 ng/μL) as a positive control. The cells were then stimulated with IL-1β at 2.5 ng/ml for 30 min. Following stimulation, the medium was changed and the inhibitors were added again to the plate. The cells were then left to incubate overnight. The next day, 160 μl of QUANTI-Blue (Invivogen) were added to each well. The plate was incubated at 37°C for 1 h. Then, the plate was placed in a spectrophotometer to detect the levels of secreted embryonic alkaline phosphatase (SEAP) in each well at a wavelength of 625–655 nm. Each peptide was tested in triplicate and an ANOVA test with Dunnett's test for multiple comparisons was performed to determine significance of inhibition.

interleukin 1β (IL-1β) [3] = biological target: T1, interleukin 1β (IL-1β) (UniProt P01584 117-269); assay: pull-down; IL-1β (20 ng/µl), IL-1RI (100 ng/µl) and 6xHis-tagged IL-1RAcP (40 ng/µl) incubated with or without peptide at various concentrations in 50 µl PBS, 1 h, room temperature; captured on anti-6xHis antibody on Protein G magnetic beads; washed in phosphate buffer pH 7.0; western blot with anti-IL-1β; band intensity relative to the control without peptide; conditions: both partners purified
T1 construct: interleukin 1β used at 20 ng/µl in the pull-down; Species is surmised as human: PDB 4DEP was used for modelling, the reporter cells are for human IL-1β and the MS search used the human database

interleukin 1β (IL-1β) [4] = biological target: T1, interleukin 1β (IL-1β); assay: cell-based or functional assay

Sequence of IL-1β:IL-1RI:IL-1RAcP complex (P01584 117-269): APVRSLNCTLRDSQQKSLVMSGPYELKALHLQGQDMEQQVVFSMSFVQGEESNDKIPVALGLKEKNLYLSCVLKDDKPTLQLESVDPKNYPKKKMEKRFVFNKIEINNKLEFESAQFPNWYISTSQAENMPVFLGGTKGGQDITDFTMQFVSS
Sequence of IL-1β:IL-1RI:IL-1RAcP complex (P14778 18-332 limits assumed): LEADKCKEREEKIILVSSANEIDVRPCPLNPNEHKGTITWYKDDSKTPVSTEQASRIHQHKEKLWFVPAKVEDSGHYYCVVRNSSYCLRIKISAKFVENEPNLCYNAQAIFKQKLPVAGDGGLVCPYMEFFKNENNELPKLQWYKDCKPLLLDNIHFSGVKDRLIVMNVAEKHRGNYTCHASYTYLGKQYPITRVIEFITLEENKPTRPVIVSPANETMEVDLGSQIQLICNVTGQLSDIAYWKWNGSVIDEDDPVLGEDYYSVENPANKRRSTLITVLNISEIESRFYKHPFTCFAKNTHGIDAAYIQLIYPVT

IL-1β concentration in the pulled down fraction, % of positive control ([1]; 0.04 nM peptide): 112% | IL-1β pull down reduced to ([1]; 40 and 4 nM peptide, relative to positive control without inhibitor): 8–9% | IC50 ([1]; His-tagged IL-1RAcP pull-down, IL-1β western blot band intensity relative to positive control, non-linear regression of dose response, read-out: IC50, inhibition of IL-1β complex formation): 0.304 nM | IL-1β pull down inhibition [1]: higher than 45%
Molecule: TINESISHSRTEDETRMQILS [Peptide 3.0]

IL-1β in the pulled-down fraction, % of positive control ([1]; 25 nM peptide): 99%
Molecule: TINESISHS A TEDETRTQILS [Peptide 2.0, negative control peptide with alanine instead of arginine in position 286]

IL-1β concentration in the pulled down fraction, % of positive control ([1]; 0.04 nM peptide): 102% | IL-1β concentration in the pulled down fraction, % of positive control ([1]; 40 nM peptide): 36% | IL-1β pull down inhibition [1]: higher than 45%
Molecule: T C N Q SISHS R T QNQ TRTQ C LS (disulfide) [Peptide 4.2, cyclized Gln/Asn variant, cycle length 18]
difference in inhibition of IL-1β signaling versus Peptide 1.0 [2]: 42%

IL-1β concentration in the pulled down fraction, % of positive control ([1]; 0.4 nM peptide): 60% | IL-1β concentration in the pulled down fraction, % of positive control ([1]; 4 nM peptide): 51% | IL-1β concentration in the pulled down fraction, % of positive control ([1]; 40 nM peptide): 35% | IL-1β pull down inhibition [1]: higher than 45%
Molecule: T C NESISHS R TEDETRTQ C LS (disulfide) [Peptide 1.2, cyclized Peptide 1.0 variant, cycle length 18]
difference in inhibition of IL-1β signaling versus Peptide 1.0 [2]: 28%

IL-1β pull down ([1]; 12.5 nM peptide, relative to positive control without inhibitor): 60% | reduction of IL-1β pull down ([1]; 124 and 62 nM peptide): 26–30% | IL-1β pull down inhibition [1]: higher than 45%
Molecule: TINESISHS R TEDETRTQILS [Peptide 1.0, synthetic peptide mimicking IL-1RAcP Arg286 hot spot region]

% IL-1β pull down with IL-1RAcP relative to no peptide (peptide at 12.5 nM) (interleukin 1β (IL-1β) [3]): 60%
B1: Peptide 1.0 (peptide)
peptide: TINESISHSRTEDETRTQILS
notes: Linear, 21 residues; also called parent Peptide 1.0; lead peptide; source: synthetic peptide (Peptide 2.0, Inc; Fmoc/tBu solid phase, RP-HPLC to 98% purity)

HEK-Blue IL-1β reporter cells (SEAP), inhibition of IL-1β signalling at 2 µM peptide, difference from Peptide 1.0; blocks formation of the IL-1β complex with IL-1RI and IL-1RAcP (interleukin 1β (IL-1β) [4]): 28% | % IL-1β pull down with IL-1RAcP relative to no peptide (peptide at 0.4 nM) (interleukin 1β (IL-1β) [3]): 60% | % IL-1β pull down with IL-1RAcP relative to no peptide (peptide at 4 nM) (interleukin 1β (IL-1β) [3]): 51% | % IL-1β pull down with IL-1RAcP relative to no peptide (peptide at 40 nM) (interleukin 1β (IL-1β) [3]): 35%
B2: Peptide 1.2 (peptide)
peptide: TCNESISHSRTEDETRTQCLS
modifications: disulfide 2-19
notes: IL-1RAcP stretch around Arg286 with two isoleucines replaced by cysteine; source: synthetic peptide (Peptide 2.0, Inc; Fmoc/tBu solid phase, RP-HPLC to 98% purity)

HEK-Blue IL-1β reporter cells (SEAP), inhibition of IL-1β signalling at 2 µM peptide, difference from Peptide 1.0; blocks formation of the IL-1β complex with IL-1RI and IL-1RAcP (interleukin 1β (IL-1β) [4]): 54% | IC50 (interleukin 1β (IL-1β) [3]): 0.303 nM
B3: Peptide 3.0 (peptide)
peptide: TINESISHSRTEDETRMQILS
notes: IL-1RAcP stretch around Arg286 with methionine at 293; source: synthetic peptide (Peptide 2.0, Inc; Fmoc/tBu solid phase, RP-HPLC to 98% purity)

HEK-Blue IL-1β reporter cells (SEAP), inhibition of IL-1β signalling at 2 µM peptide, difference from Peptide 1.0; blocks formation of the IL-1β complex with IL-1RI and IL-1RAcP (interleukin 1β (IL-1β) [4]): 42% | % IL-1β pull down with IL-1RAcP relative to no peptide (peptide at 40 nM) (interleukin 1β (IL-1β) [3]): 36%
B4: Peptide 4.2 (peptide)
peptide: TCNQSISHSRTQNQTRTQCLS
modifications: disulfide 2-19
notes: IL-1RAcP stretch around Arg286 with two cysteines for isoleucines and Gln/Asn for Glu/Asp; source: synthetic peptide (Biomatik; Fmoc/tBu solid phase, RP-HPLC to 98% purity)
